The values below come from ChEMBL document CHEMBL1201862, “PubChem BioAssay data set” (2004).

Common to all, as to assay: NCI tumour cell line growth inhibition, 48 h
Test [1] has as its system OVCAR-3.
Test [2] concerns HOP-92.
Test [3] relates to TK-10.
Test [4] has as its system 786-0.
The subject of test [5] is SW-620.
Test [6] relates to NCI-H522.
In test [7] the test system is CAKI-1.
Test [8] has as its system HCT-116.
The subject of test [9] is OVCAR-5.
The subject of test [10] is M14.
Test [11] has as its system CCRF-CEM.
The test system of test [12] is DLD-1.
The test system of test [13] is UO-31.
Test [14] concerns NCI-H23.
Test [15] deals with UACC-257.
Test [16] relates to RPMI-8226.
For test [17], the system named is HCT-15.

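Briefly, cells in 96-well plates were exposed to five compound concentrations for 48 h, and endpoints were estimated by linear interpolation. Here, GI50 denotes the concentration required for 50% inhibition of growth.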 Active and inactive are the calls of the source. Cut-off read from the data, not from the text of the source: active = GI50 up to about 1.1 µM and inactive = higher. Where only a bound is given, the exact number is not on record here.

In the case of `CCOC(=O)C1COc2cc(-c3cc(=O)c4ccccc4o3)ccc2O1` (stereo not drawn), the GI50 in test [1] is > 100 µM (inactive); in test [2], 10.4 µM (inactive); in test [3] it was > 100 µM (inactive); in [4], > 100 µM (inactive); in test [5], > 100 µM (inactive); in test [6], 19.2 µM (inactive). For the same compound, the GI50 was > 100 µM (inactive) in test [7]; > 100 µM (inactive) in [8]; 78.9 µM (inactive) in test [9]; > 100 µM (inactive) in [10]; > 100 µM (inactive) in [11]; 36.1 µM (inactive) in [12]. The GI50 in [13] is 30.5 µM (inactive); in test [14], > 100 µM (inactive).

Turning to `CC(=O)OC(C)(C)[C@@H]1CC[C@]2(C)/C=C/[C@H](C)C[C@@H](O)C3=C(C)C[C@@H](O3)C12` (stereo partly drawn), the GI50 in [1], in test [2], in [3], in test [4], in test [5] and in test [15] was > 100 µM (inactive) each time. In addition, the GI50 in test [7], in test [8], in test [9], in test [10], in test [11] and in [12] was > 100 µM (inactive) in each case. The GI50 in [13] was > 100 µM (inactive); in [14], > 100 µM (inactive); in test [16] it was > 100 µM (inactive); in test [17], greater than 100 µM.

Consider `OC12c3ccccc3C3CCC4(OCCO4)C3C1c1ccccc12` (stereo not drawn), for which the GI50 was > 100 µM (inactive) in test [1]; 83.2 µM (inactive) in test [3]; > 100 µM (inactive) in test [4]; > 100 µM (inactive) in test [5]; 71.9 µM (inactive) in test [15]; 65 µM (inactive) in test [6]. Also, the GI50 in test [7], in test [8], in test [9], in test [10], in test [11] and in test [12] was > 100 µM (inactive) throughout. The GI50 in test [13] is > 100 µM (inactive); in [14], > 100 µM (inactive); in test [16], 64 µM (inactive); in test [17] it was greater than 100 µM.

Consider `O=C(O)C1=C(C(=O)O)Oc2ccccc2O1`, for which the GI50 in test [1], in [2], in test [3], in test [4], in test [5] and in [15] was > 100 µM (inactive) in each case. In addition, the GI50 in test [6], in test [7], in [8], in test [9], in test [10] and in test [11] was > 100 µM (inactive) each time. The GI50 in [12] was > 100 µM (inactive); in test [13] it was > 100 µM (inactive); in test [14], > 100 µM (inactive); in test [17] it was greater than 100 µM.

With `CN(C)C(=O)Oc1c(-c2ccccc2)c(=O)n2c3ccccc3n3c(=O)n(C)c(=O)c1c23`, the GI50 in [1], in test [2], in test [3], in [4], in test [5] and in test [15] was > 100 µM (inactive) each time. Moreover, the GI50 in test [7], in test [8], in test [9], in [10], in test [12] and in test [13] was > 100 µM (inactive) throughout. For the same compound, the GI50 in test [14] was > 100 µM (inactive); in [16], > 100 µM (inactive); in [17], greater than 100 µM.

As for `O=C1CCCCCCCCCCC(=O)N2CCOCCOCCN1Cc1cccc(n1)C2`, the GI50 was 44.5 µM (inactive) in [1]; > 100 µM (inactive) in test [3]; > 100 µM (inactive) in [4]; > 100 µM (inactive) in [5]; > 100 µM (inactive) in [15]; 85.1 µM (inactive) in test [6]. In addition, the GI50 in test [7], in test [8], in test [9], in test [10], in [11] and in test [12] was > 100 µM (inactive) in each case. In addition, the GI50 in test [13] is > 100 µM (inactive); in test [14] it was > 100 µM (inactive); in test [16], 36.1 µM (inactive); in test [17], greater than 100 µM.

As for `C/C(=N\NC(=O)CC(=O)Nc1ccc(C)cc1)c1cc2ccccc2oc1=O`, the GI50 in [1], in test [3], in [4], in [5], in [15] and in test [6] was > 100 µM (inactive) in each case. For the same compound, the GI50 in test [8], in [10], in [11], in test [12], in [13] and in test [14] was > 100 µM (inactive) throughout. Moreover, the GI50 in [16] was > 100 µM (inactive); in [17] it was greater than 100 µM.

Regarding `O=c1sc(-c2nc3ccccc3[nH]2)c(/N=C/c2ccccc2)n1-c1ccccc1`, the GI50 in test [1] is 25.6 µM (inactive); in test [3], 62.8 µM (inactive); in test [4], 42.9 µM (inactive); in test [5], > 100 µM (inactive); in [15], > 100 µM (inactive); in [6], 90.2 µM (inactive). The GI50 in [7] is > 100 µM (inactive); in test [9], > 100 µM (inactive); in test [10], 48.9 µM (inactive); in test [11] it was > 100 µM (inactive); in [12], > 100 µM (inactive); in test [13] it was > 100 µM (inactive). Also, the GI50 was > 100 µM (inactive) in test [14], > 100 µM (inactive) in test [16] and 74.1 µM in test [17].

As to `CC1C(=O)O[C@H]2C1CC[C@@]1(C)[C@H](O)CC[C@@]13C[C@]2(O)OO3` (stereo partly drawn), the GI50 in test [1], in [2], in [3], in [4], in [5] and in test [15] was > 100 µM (inactive) each time. Also, the GI50 in [7], in [8], in test [9], in [10], in test [11] and in test [12] was > 100 µM (inactive) throughout. The GI50 in test [13] is > 100 µM (inactive); in [14], > 100 µM (inactive); in [16], > 100 µM (inactive); in test [17], greater than 100 µM.
